Data published in PMC10047683, “A Novel Family of Lysosomotropic Tetracyclic Compounds for Treating Leukemia” (Cancers, 2023).

Assays:
HEK-293T = experiment: Pancancer cell line panel viability (nontumor line); type: cell-based; conditions: HEK-293T (nontumor); 10 µM; 48 h
Description: (§1) First, 2 × 10^5 (72 h assays in cell lines (Supplementary File S1)), 3 × 10^5 (48 h assays in cell lines) or 7.5 × 10^5 (primary AML, healthy donor buffy coats) cells per mL were cultured in 96-well plates, and all drugs were added at the indicated concentrations. In α-tocopherol experiments, cells were treated with growing concentrations of α-tocopherol and EDK drugs for 48 h. In the NAC and 3MA experiments, treatment was simultaneous with EDK compounds. In glucose deprivation experiments, cells were cultivated with a standard medium (glucose high, 2 g/L), a standard medium without glucose, or a standard medium with galactose (2 g/L) and without glucose. Cell viability was measured via 7-AAD (eBioscience) exclusion and Hoechst33342 (Sigma-Aldrich, St. Louis, MO, USA) positivity staining via flow cytometry, and the cell count was obtained through volume. In the experiments with the primary cells, analyses were performed inside the blast population as detected via blast gates (CD45^low SSC^int). For solid tumor cell lines, viability was analyzed using CellTiter-Glo® Luminescent Cell Viability Assay (Promega).
(§2) AML cell lines and cell cultures
(§3) Cell lines HL-60 (ACC-3), KG-1 (ACC-14), MonoMac-1 (ACC-252), Kasumi-1 […]
(§4) obtained from DSMZ. Cell lines THP-1 (TIB-202TM), MCF-7 (HTB-22™), MDA- […]
(§5) 3216™) and HS-5 (CRL-11882™) were obtained from ATCC. HBL-2 cell line was kindly supplied by Dr. Pérez-Galán (IDIBAPS, Barcelona, Spain). SKM-1 and U937 were kindly provided by Dr. Marcus Buschbeck (IJC, Badalona, Spain). All cell lines were cultured in the conditions indicated by the providers, and were tested for mycoplasma on a monthly basis.
(§6) All drugs were resuspended in H2O (Thermo Fischer Scientific), DMSO (Sigma-Aldrich) or ethanol (VWR) according to manufacturer’s specifications. - tocopherol, 3-methyladenine (3MA), arsenic trioxide (ATO) and N-acetyl-L-cysteine (NAC) were purchased from Sigma Aldrich. Chloroquine diphosphate was purchased from Merck. Etoposide and ionomycin were purchased from […]
(§7) (1 picture or pasted object on this page, not shown here)

HS-5 = experiment: as above; type: cell-based; conditions: HS-5 (nontumor); 10 µM; 48 h
Description: as §1, §2, §3, §4, §5, §6, §7

HL60 [1] = experiment: Combination with ATO in AML cell lines, viability and Bliss synergy; type: cell-based; conditions: upper maps (HL60), 48 h
Description: as §1
(§8) Synergy was calculated using SynergyFinder 2.0 with the Bliss reference model.

MonoMac1 [2] = experiment: as above; type: cell-based; conditions: lower maps (MonoMac1), 48 h
Description: as §1, §8

[3] = tested on: peripheral blood mononuclear cells from healthy donors' buffy coats; experiment: Cytotoxicity in healthy donor blood cells; type: cell-based, human; conditions: 72 h
From the text: Primary AML samples were obtained at diagnosis from patients diagnosed at Hospital Clínic of Barcelona (Spain) and Hospital Germans Trias i Pujol (Badalona, Spain). AML diagnosis, classification, and risk stratification were based on the latest revised WHO criteria (Supplementary Table S1). Clinical characteristics of AML patients are summarized in Supplementary Table S1. Mononuclear cells (MNCs) were isolated with Ficoll density gradient centrifugation (GE Healthcare, Chicago, IL, USA). All patients provided their written informed consent in accordance with the Declaration of Helsinki, and the study was approved by the corresponding ethics committees. Mature blood MNCs were isolated from healthy donors’ buffy coats provided by Banc de Sang i Teixits (BSiT, Barcelona, Spain). Umbilical-cord blood was provided by BSiT, and MNCs were depleted for lineage marker-positive cells using magnetic separation with the Human Lineage Cell Depletion kit (Miltenyi Biotec, North Rhine-Westphalia, Germany) following the manufacturer’s recommendations.
as §1

KG1 = experiment: Dose-response viability curves in AML cell lines; type: cell-based; conditions: Homo sapiens, KG-1, 48 h
Description: as §1

U937 = experiment: Dose-response viability curves in AML cell lines; type: cell-based; conditions: Homo sapiens, U-937, 48 h
Description: as §1

HL60 [4] = experiment: Dose-response viability curves in AML cell lines; type: cell-based; conditions: Homo sapiens, HL-60, 48 h
Description: as §1

THP1 = experiment: Dose-response viability curves in AML cell lines; type: cell-based; conditions: Homo sapiens, THP-1, 48 h
Description: as §1

Kasumi-1 = experiment: Dose-response viability curves in AML cell lines; type: cell-based; conditions: Homo sapiens, 48 h
Description: as §1

MonoMac1 [5] = experiment: Dose-response viability curves in AML cell lines; type: cell-based; conditions: Mono-Mac-1, 48 h
Description: as §1

TFEB = TFEB promoter-luciferase reporter; type: cell-based; conditions: HEK293T; 10 and 20 µM, 24 h
Description: We transfected 2.5 × 10^5 HEK-293T cells per condition using the jetPEI DNA transfection reagent (Polyplus) with TFEB promoter-luciferase reporter Addgene#66801. Then, at 24 h post-transfection, cells were treated at the indicated conditions, and the 48 h post-transfection luminescence of lysed cells was analyzed according to the manufacturer’s specifications.

## CN1CCC(=C2c3ccccc3-c3c2sc2ccccc32)CC1 [EDK-87]
HEK-293T
  # Live cells refer to control: 79%
HS-5
  # Live cells refer to control: 71%
HL60 [1]; EDK compound alone 1 µM
  Effectivity (%Viability reduction): 18%
HL60 [1]; EDK compound alone 3 µM
  Effectivity (%Viability reduction): 30%
HL60 [1]; EDK compound alone 10 µM
  Effectivity (%Viability reduction): 84%
MonoMac1 [2]; EDK compound alone 1 µM
  Effectivity (%Viability reduction): 29%
MonoMac1 [2]; EDK compound alone 3 µM
  Effectivity (%Viability reduction): 33%
MonoMac1 [2]; EDK compound alone 10 µM
  Effectivity (%Viability reduction): 61%
[3]; 9 healthy donors, EDK-87 10 and 25 µM, EDK-88 5 and 10 µM assayed
  healthy-donor blood cells affected: 33.2% ± 8.1
[3]; BC sample #20, 5 µM
  # Live cells refer to control: 140%
[3]; BC sample #20, 10 µM
  # Live cells refer to control: 113%
[3]; BC sample #26, 5 µM
  # Live cells refer to control: 78%
[3]; BC sample #26, 10 µM
  # Live cells refer to control: 65%
[3]; BC sample #31, 5 µM
  # Live cells refer to control: 83%
[3]; BC sample #31, 10 µM
  # Live cells refer to control: 56%
[3]; BC sample #32, 5 µM
  # Live cells refer to control: 81%
[3]; BC sample #32, 10 µM
  # Live cells refer to control: 41%
[3]; BC sample #32, 25 µM
  # Live cells refer to control: 72%
[3]; BC sample #41, 5 µM
  # Live cells refer to control: 77%
[3]; BC sample #41, 10 µM
  # Live cells refer to control: 87%
[3]; BC sample #44, 5 µM
  # Live cells refer to control: 74%
[3]; BC sample #44, 10 µM
  # Live cells refer to control: 76%
[3]; BC sample #44, 25 µM
  # Live cells refer to control: 80%
[3]; BC sample #51, 5 µM
  # Live cells refer to control: 101%
[3]; BC sample #51, 10 µM
  # Live cells refer to control: 77%
[3]; BC sample #59, 5 µM
  # Live cells refer to control: 89%
[3]; BC sample #59, 10 µM
  # Live cells refer to control: 41%
[3]; BC sample #59, 25 µM
  # Live cells refer to control: 13%
[3]; BC sample #63, 5 µM
  # Live cells refer to control: 92%
[3]; BC sample #63, 10 µM
  # Live cells refer to control: 45%
[3]; BC sample #63, 25 µM
  # Live cells refer to control: 22%
KG1
  EC50: 7 ± 1.2 µM
U937
  EC50: 6.9 ± 0.07 µM
HL60 [4]
  EC50: 6.2 ± 0.9 µM
THP1
  EC50: 11.2 ± 0.01 µM
Kasumi-1
  EC50: 6.3 ± 0.35 µM
MonoMac1 [5]
  EC50: 8.6 ± 1.4 µM
TFEB
  TFEB activity (reporter): activation of TFEB activity
